Test results from US20240217988A1, “ESTROGEN RECEPTOR ANTAGONIST” (Shenzhen Forward Pharmaceuticals Co., Limited, priority 2021, published 2024).
pIC50: −log10 of the molar value.

Columns and labels:
[1] = test system: Human breast cancer cells MCF-7; assay: MCF-7 cell proliferation experiment; type: cell-based; conditions: MCF-7 cells, 72 hours, Cell Titer-Glo
Protocol: Test Example 2: MCF-7 Cell Proliferation Experiment
Human breast cancer cells MCF-7 (HTB-22, purchased from ATCC) were inoculated into a 96-well plate. The culture medium was an MEM (Hyclone, SH30024.01B) culture medium containing 10% of FBS (Gibco, 10099-141), 1% of pyruvic acid (Sigma, S8636), and 1% of nonessential amino acid (Sigma, M7145), and the inoculation density was 4,000 cells/well. The cells were cultured at 37° C., 5% CO2. The compound was prepared into a 20 mM stock solution, which was subjected to gradient dilution to a final concentration of […] with 100% DMSO (Sigma, D2650) and then diluted 20 folds with a culture medium containing 2% of FBS. After 24 hours of culture, the culture medium was removed, 90 μL of a culture medium containing 2% of FBS and 10 μL of drug were added to each well, while 10 μL of DMSO was added to the control group, and they were gently shaken and mixed. The blank group only contained 100 μL of 2% FBS culture medium. They were placed in an incubator and cultured at 37° C., 5% CO2. After 72 hours, 50 μL of mixed Cell Titer-Glo (Promega, G7571) was added. They were shaken and mixed uniformly, and placed at room temperature for 10 min. The chemiluminescence signal value was determined. The negative control was 0.5% DMSO well.

[2] = Stability in human liver microsomes in vitro; type: in vitro ADME; conditions: for microsomal CLint: read-out: CLint(mic)
Protocol: Test Example 4: Test for Stability in Human Liver Microsomes In Vitro Eight 96-well incubation plates were prepared and named [NT], Blank60 and NCF60, respectively. […] No test compound or control compound was added to Blank60 plate, and samples were taken after incubation for 60 min. NCF60 plate was incubated with a potassium phosphate buffer instead of an NADPH regeneration system solution (Sigma, N0505) for 60 min. […] Only the microsome working solution was added to Blank60 plate, and the incubation plates Blank60, T5, T15, T30, T45 and T60 except T0 and NCF60 were then placed in a water bath at 37° C. and pre-incubated for about 10 min. To the samples of T0 plate, 600 μL of a stop solution (acetonitrile:methanol (95:5, v/v) solution containing 100 ng/mL of tolbutamide (Sigma, T0891)) was added first, and the NADPH regeneration system working solution was then added. 98 μL of a potassium phosphate buffer was added to each well of NCF60 plate and incubated for 60 min. After the pre-incubation in the incubation plates Blank60, T5, T15, T30, T45 and T60 was completed, 98 μL of the NADPH regeneration system working solution was added to each sample well to initiate the reaction. After an appropriate incubation time (such as 5, 15, 30, 45 and 60 min), 600 μL of a stop solution was added to each sample well and the control sample well in Blank60, […] the reaction. All the sample plates were shaken uniformly and centrifuged at 3220×g for 20 min. 200 μL of test sample supernatant was separately taken and diluted in 200 μL of an aqueous solution containing 0.3% formic acid for LC-MS/MS analysis, and 100 μL of control sample supernatant was taken and diluted in 300 μL of pure water for LC-MS/MS analysis. Calculation was performed according to the following formula: [formula] [formula] [formula] [formula] [formula] [formula]

ERα = ERα (Homo sapiens (Human), UniProt P03372); assay: Degradation effect of compound on ERα (ERα DuoSet IC ELISA in MCF-7 cells); type: cell-based; conditions: 24 h with compound; for DC50: read-out: IC50 value of ERα degradation by compound
Protocol: In this test example, ERα DuoSet IC ELISA Kit (R&D, DYC5715) was used to detect the degradation effect of the compound on ERα. On the first day of the experiment, human breast cancer cells MCF-7 (the source was as above) were inoculated into a 24-well plate. The culture medium was an MEM culture medium containing 10% of activated-carbon-treated FBS (Tocyto, UT61204), 1% of pyruvic acid and 1% of nonessential amino acid. The inoculation density was 150,000 cells/well. The cells were cultured at 37° C., 5% CO2 for 24 h.
On the second day of the experiment, the compound to be tested was diluted in gradient and added to a 24-well plate containing cells. The cells were cultured for 24 h at 37° C., 5% CO2. ERα capture antibody was diluted to 1 μg/ml with PBS (Corning, 21-040-CVR) and added to a 96-well plate at 100 μL/well, and the plate was […] coated overnight at room temperature.
On the third day of the experiment, the coated 96-well plate was washed three times with PBS, 300 μL of a blocking solution (R&D, DY995) was added to each well, and the plate was blocked at room temperature for 1 h. The 24-well plate was washed once with PBS, and the residual liquid was sucked off. […] The diluted cell lysate was taken and added to the blocked 96-well plate, with 100 μL per well, and incubated at room temperature for 2 h. The plate was washed three times with a washing solution (R&D, WA126), and a primary antibody was then added. After incubation for 1 h, the 96-well plate was washed four times, a secondary antibody was added, and incubation was carried out at room temperature in the dark for 30 min. The plate was washed four times with the washing solution, and TMB (R&D, DY999) was added. After 15 minutes of development, the reaction was terminated with a stop solution (R&D, DY994), and the light absorption at 450 nm was read.

[3] = human liver microsomes, microsome protein 1 mg/mL working solution, NADPH
[4] = human liver microsomes, scaled to liver

Sequence of ERα (P03372 whole entry): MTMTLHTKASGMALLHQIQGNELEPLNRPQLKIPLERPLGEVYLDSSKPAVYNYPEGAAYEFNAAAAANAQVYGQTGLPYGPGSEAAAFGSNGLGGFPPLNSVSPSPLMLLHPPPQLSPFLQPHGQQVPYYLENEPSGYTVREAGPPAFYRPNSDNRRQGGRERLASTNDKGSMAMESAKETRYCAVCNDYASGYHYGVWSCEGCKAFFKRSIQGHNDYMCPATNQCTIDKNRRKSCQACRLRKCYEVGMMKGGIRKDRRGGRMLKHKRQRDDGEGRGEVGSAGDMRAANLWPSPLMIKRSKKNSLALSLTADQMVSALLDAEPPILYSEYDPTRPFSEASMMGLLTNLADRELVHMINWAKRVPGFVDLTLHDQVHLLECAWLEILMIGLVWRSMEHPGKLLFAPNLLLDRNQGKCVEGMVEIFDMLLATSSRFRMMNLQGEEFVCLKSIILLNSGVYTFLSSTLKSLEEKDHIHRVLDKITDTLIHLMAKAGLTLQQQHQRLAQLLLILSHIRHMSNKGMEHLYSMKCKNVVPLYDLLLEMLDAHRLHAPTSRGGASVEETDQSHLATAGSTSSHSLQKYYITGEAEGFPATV

## C[C@@H]1Cc2c([nH]c3ccccc23)[C@@H](c2c(F)cc(/C=C/C(=O)O)cc2F)N1CC(C)(C)F [AZD9496, reference compound]
[1]; Homo sapiens, MCF7
  pIC50: 8.42

## C[C@@H]1Cc2c(ccc3[nH]ncc23)[C@@H](c2ccc(NC3CN(CCCF)C3)cn2)N1CC(F)(F)F [AZD9833, reference compound]
[2]; [3]
  half-life: 1.33 h
[2]; [4]
  CLint scaled: 15.6 mL/min/kg
[2]; human liver microsomes
  microsomal CLint: 17.3 µL/min/mg
[1]; Homo sapiens, MCF7
  pIC50: 8.61

## C[C@@H]1Cc2c(ccc3[nH]ncc23)[C@@H](c2c(F)cc(OCCN3CC(CF)C3)cc2F)N1CC(C)(C)F [Comparative Compound 1, (6S,8R)-6-(2,6-difluoro-4-(2-(3-(fluoromethyl)azetidin-1-yl)ethoxy)phenyl)-7-(2-fluoro-2-methylpropyl)-8-methyl-6,7,8,9-tetrahydro-3H-benzopyrazolo[4,3-f]isoquinoline, reference compound]
[2]; [3]
  T1/2: 0.703 h
[2]; [4]
  CLint(liver): 29.6 mL/min/kg
[2]; human, microsomes
  CLint(mic): 32.9 µL/min/mg
[1]
  pIC50: 8.57
ERα
  pIC50: 8.72

## C[C@@H]1Cc2c(ccc3[nH]c(=O)oc23)[C@@H](c2ccc(NC3CN(CCCF)C3)cn2)N1CC(F)(F)F [Example 5, (6S,8R)-6-(5-((1-(3-fluoropropane)azetidin-3-yl)amino)pyridin-2-yl)-8-methyl-7-(2,2,2-trifluoroethyl)-6,7,8,9-tetrahydrooxazolo[5,4-f]isoquinolin-2(3H)-one]
[2]; [3]
  half-life: 1.26 h
[2]; [4]
  CLint scaled: 16.5 mL/min/kg
[2]; human liver microsomes
  microsomal CLint: 18.4 µL/min/mg

## C[C@@H]1Cc2c(ccc3[nH]c(=O)oc23)[C@@H](c2c(F)cc(N3CC4(CN(CCF)C4)C3)cc2F)N1CC(F)(F)F [Example 8, (6S,8R)-6-(2,6-difluoro-4-(6-(2-fluoroethyl)-2,6-diazspiro[3.3]hept-2-yl)phenyl)-8-methyl-7-(2,2,2-trifluoroethyl)-6,7,8,9-tetrahydrooxazolo[5,4-f]isoquinolin-2(3H)-one]
[2]; [3]
  half-life: 1.43 h
[2]; [4]
  CLint scaled: 14.5 mL/min/kg
[2]; human liver microsomes
  microsomal CLint: 16.1 µL/min/mg

## C[C@@H]1Cc2c(ccc3[nH]c(=O)oc23)[C@@H](c2c(F)cc(O[C@H]3CCN(CCCF)C3)cc2F)N1CC(F)(F)F [Example 11]
[1]; Homo sapiens, MCF7
  pIC50: 9.42
ERα
  DC50: 0.62 nM

## C[C@@H]1Cc2c(ccc3[nH]c(=O)oc23)[C@@H](c2c(F)cc(O[C@H]3CCN(CCCF)C3)cc2F)N1CC(F)(F)CO [Example 13, (6S,8R)-7-(2,2-difluoro-3-hydroxypropyl)-6-(2,6-difluoro-4-(((S)-1-(3-fluoropropane)pyrrolidin-3-yl)oxy)phenyl)-8-methyl-6,7,8,9-tetrahydrooxazolo[5,4-f]isoquinolin-2(3H)-one]
[1]; Homo sapiens, MCF7
  pIC50: 9.52
ERα
  DC50: 0.23 nM

## C[C@@H]1Cc2c(ccc3[nH]c(=O)oc23)[C@@H](c2c(F)cc(OCCNC/C=C/C(=O)N(C)C)cc2F)N1CC(F)(F)F [Example 16, (E)-4-((2-(3,5-difluoro-4-((6S,8R)-8-methyl-2-oxy-7-(2,2,2-trifluoroethyl)-2,3,6,7,8,9-hexahydrooxazolo[5,4-f]isoquinolin-6-yl)phenoxy)ethyl)amino)-N,N-dimethylbut-2-enamide]
[1]; Homo sapiens, MCF7
  pIC50: 9.10

## C[C@@H]1Cc2c(ccc3[nH]c(=O)oc23)[C@@H](c2ncc(NC3CN(CCCF)C3)cc2F)N1CC(F)(F)F [Example 27, (6S,8R)-6-(3-fluoro-5-((1-(3-fluoropropyl)azetidin-3-yl)amino)pyridin-2-yl)-8-methyl-7-(2,2,2-trifluoromethyl)-6,7,8,9-tetrahydroxazolo[5,4-f]isoquinolin-2(3H)-one]
[1]; Homo sapiens, MCF7
  pIC50: 8.79

## COc1cc(NC2CN(CCCF)C2)cnc1[C@@H]1c2ccc3[nH]c(=O)oc3c2C[C@@H](C)N1CC(F)(F)F [Example 28, (6S,8R)-6-(5-((1-(3-fluoropropyl)azetidin-3-yl)amino)-3-methoxypyridin-2-yl)-8-methyl-7-(2,2,2-trifluoroethyl)-6,7,8,9-tetrahydroxazolo[5,4-f]isoquinolin-2(3H)-one]
[1]; Homo sapiens, MCF7
  pIC50: 9.40

## C[C@@H]1Cc2c(ccc3[nH]c(=O)oc23)[C@@H](c2ccc(O[C@H]3CCN(CCCF)C3)cn2)N1CC(F)(F)F [Example 29, (6S,8R)-6-(5-(((S)-1-(3-fluoropropane)pyrrolidin-3-yl)oxy)pyridin-2-yl)-8-methyl-7-(2,2,2-trifluoroethyl)-6,7,8,9-tetrahydrooxazolo[5,4-f]isoquinolin-2(3H)-one]
[1]; Homo sapiens, MCF7
  pIC50: 9.15

## C[C@@H]1Cc2c(ccc3[nH]c(=O)oc23)[C@@H](c2c(F)cc(NC3CN(C/C=C/C(=O)N(C)C)C3)cc2F)N1CC(F)(F)F [Example 35, (E)-4-(3-((3,5-difluoro-4-((6S,8R)-8-methyl-2-oxo-7-(2,2,2-trifluoroethyl)-2,3,6,7,8,9-hexahydrooxazolo[5,4-f]isoquinolin-6-yl)phenyl)amino)azetidin-1-yl)-N,N-dimethylbut-2-enamide]
[1]; Homo sapiens, MCF7
  pIC50: 9.09

## C[C@@H]1Cc2c(ccc3[nH]c(=O)oc23)[C@@H](c2c(F)cc(O[C@@H]3CCN(C/C=C/C(=O)N(C)C)C3)cc2F)N1CC(F)(F)F [Example 37]
[1]; Homo sapiens, MCF7
  pIC50: 9.21

## C[C@@H]1Cc2c(ccc3[nH]c(=O)oc23)[C@@H](c2ccc(OCCCN3CCN(CCNc4cccc5c4CN(C4CCC(=O)NC4=O)C5=O)CC3)cn2)N1CC(F)(F)F (stereo partly drawn) [Example 43, 3-(4-((2-(4-(3-((6-((6S,8R)-8-methyl-2-oxo-7-(2,2,2-trifluoroethyl)-2,3,6,7,8,9-hexahydrooxazolo[5,4-f]isoquinolin-6-yl)pyridin-3-yl)oxy)propyl)piperazin-1-yl)ethyl)amino)-1-oxoisoindolin-2-yl)piperidine-2,6-dione]
[1]; Homo sapiens, MCF7
  pIC50: 9.16
ERα
  DC50: 0.63 nM

## (E)-4-((S)-3-((3,5-difluoro4-((6S,8R)-8-methyl-2-oxo-7-(2,2,2-trifluoroethyl)-2,3,6,7, 8,9-hexahydrooxazolo[5,4-f]isoquinolin-6-yl)phenoxy)pyrrolidin-1-yl)-N,N-dimethylbut-2-enamide [Example 39]
[1]
  pIC50: 9.31
